Data from patent publication US11884671B2, “Purinone compounds and their use in treating cancer” (ASTRAZENECA AB, priority 2018, dated 2024).

Tests used:
JAK2 = JAK2 (Homo sapiens (Human), UniProt O60674); assay: JAK2 enzyme assay (Z'-LYTE); assay type: biochemical; conditions: 25 μM ATP; arithmetic mean of two or more experiments
Procedure: (§1) The inhibitory activity of compounds against AURKA, AURKB, JAK1, JAK2 and JAK3 was determined in Z′-LYTE® assays run by ThermoFisher Scientific as part of their SelectScreen® Biochemical Kinase Profiling Service. The Z′-LYTE® biochemical assay format employs a fluorescence-based, coupled-enzyme format and is based on the differential sensitivity of phosphorylated and non-phosphorylated peptides to proteolytic cleavage. The peptide substrate is labeled with two fluorophores—one at each end—that make up a FRET pair. In the primary reaction, the kinase transfers the gamma-phosphate of ATP to a single tyrosine, serine or threonine residue in a synthetic FRET-peptide. In the secondary reaction, a site-specific protease recognises and cleaves non-phosphorylated FRET-peptides. Phosphorylation of FRET-peptides suppresses cleavage by the Development Reagent. Cleavage disrupts FRET between the donor (i.e., coumarin) and acceptor (i.e., fluorescein) fluorophores on the FRET-peptide, whereas uncleaved, phosphorylated FRET-peptides maintain FRET. A ratiometric method, which calculates the ratio (the Emission Ratio) of donor emission to acceptor emission after excitation of the donor fluorophore at 400 nm, is used to quantitate reaction progress. Both cleaved and uncleaved FRET-peptides contribute to the fluorescence signals and therefore to the Emission Ratio. The extent of phosphorylation of the FRET-peptide can be calculated from the Emission Ratio.
(§2) 10 point three-fold dilution compound concentration-response curves, with a top concentration of 10 μM were generated from 10 mM stocks of compound solubilised in DMSO. All assays were performed in black, non-binding, low volume Corning 384-well plates (cat. #4514, Corning), in a total reaction volume of 10 μL and 1% (v/v) final DMSO concentration. […] The kinase reaction was then quenched by the addition of 5 μL of Development Reagent (ThermoFisher Scientific proprietary). […] IC50 values were calculated using XLfit software (IDBS Ltd, Surrey, UK), with the curve fit to model number 205 (sigmoidal dose-response model).
JAK2: The 2×JAK2/Tyr 06 (ThermoFisher Scientific proprietary) mixture was prepared in 50 mM HEPES pH 7.5, 0.01% BRIJ-35, 10 mM MgCl2, 1 mM EGTA. […] After the 1 hour Kinase Reaction incubation, 5 μL of a 1:128 dilution of Development Reagent was added.

JAK3 = JAK3 (Homo sapiens (Human), UniProt P52333); assay: JAK3 enzyme assay (Z'-LYTE); assay type: biochemical; conditions: 10 μM ATP; arithmetic mean of two or more experiments
Chain of JAK3 (P52333 whole entry): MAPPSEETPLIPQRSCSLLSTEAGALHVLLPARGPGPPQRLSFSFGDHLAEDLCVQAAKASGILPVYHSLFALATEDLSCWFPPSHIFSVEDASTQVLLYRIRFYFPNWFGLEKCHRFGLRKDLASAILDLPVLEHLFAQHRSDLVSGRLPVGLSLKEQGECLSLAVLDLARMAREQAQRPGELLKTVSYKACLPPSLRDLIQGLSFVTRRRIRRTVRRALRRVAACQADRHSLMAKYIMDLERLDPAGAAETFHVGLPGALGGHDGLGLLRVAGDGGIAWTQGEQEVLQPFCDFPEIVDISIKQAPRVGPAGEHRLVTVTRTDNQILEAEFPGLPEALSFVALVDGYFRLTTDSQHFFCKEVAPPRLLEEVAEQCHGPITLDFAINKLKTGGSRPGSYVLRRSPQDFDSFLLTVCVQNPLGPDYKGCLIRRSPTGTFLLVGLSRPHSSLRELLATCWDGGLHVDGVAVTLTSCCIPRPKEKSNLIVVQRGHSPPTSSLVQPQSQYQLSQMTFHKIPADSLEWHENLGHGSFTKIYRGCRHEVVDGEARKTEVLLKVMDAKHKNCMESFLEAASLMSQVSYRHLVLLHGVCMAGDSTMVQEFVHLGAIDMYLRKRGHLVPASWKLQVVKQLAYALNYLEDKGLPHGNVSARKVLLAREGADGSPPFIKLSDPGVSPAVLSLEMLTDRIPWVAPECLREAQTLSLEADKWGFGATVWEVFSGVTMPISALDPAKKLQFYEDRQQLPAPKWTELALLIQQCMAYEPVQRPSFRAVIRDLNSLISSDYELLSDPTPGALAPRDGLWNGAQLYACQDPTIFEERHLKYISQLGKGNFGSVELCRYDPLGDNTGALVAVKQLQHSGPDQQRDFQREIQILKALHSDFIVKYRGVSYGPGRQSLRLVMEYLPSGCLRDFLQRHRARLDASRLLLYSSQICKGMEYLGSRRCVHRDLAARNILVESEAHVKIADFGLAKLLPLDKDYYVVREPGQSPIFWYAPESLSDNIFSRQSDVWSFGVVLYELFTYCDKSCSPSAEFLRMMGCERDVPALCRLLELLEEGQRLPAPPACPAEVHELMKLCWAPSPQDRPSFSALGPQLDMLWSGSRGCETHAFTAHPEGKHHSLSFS
Procedure: as §1, §2
JAK3: The 2×JAK3/Tyr 06 (ThermoFisher Scientific proprietary) mixture was prepared in 50 mM HEPES pH 7.5. 0.01% BRIJ-35, 10 mM MgCl2, 1 mM EGTA. […] After the 1 hour Kinase Reaction incubation, 5 μL of a 1:128 dilution of Development Reagent was added.

AURKB (Aurora B) = AURKB (Aurora B) (Homo sapiens (Human), UniProt Q96GD4); assay: Aurora-B enzyme assay (Z'-LYTE); assay type: biochemical; conditions: 75 μM ATP; arithmetic mean of two or more experiments
Chain of AURKB (Aurora B) (Q96GD4 whole entry): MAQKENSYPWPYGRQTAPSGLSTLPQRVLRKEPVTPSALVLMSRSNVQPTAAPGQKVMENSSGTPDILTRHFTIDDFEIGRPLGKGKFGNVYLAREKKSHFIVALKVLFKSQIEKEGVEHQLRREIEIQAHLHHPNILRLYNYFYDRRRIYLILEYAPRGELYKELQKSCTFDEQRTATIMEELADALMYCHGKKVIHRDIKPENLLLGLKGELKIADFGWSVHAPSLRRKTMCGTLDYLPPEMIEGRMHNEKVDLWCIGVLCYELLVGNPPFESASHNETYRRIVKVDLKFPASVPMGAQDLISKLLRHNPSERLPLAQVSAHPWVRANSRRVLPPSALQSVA
Procedure: as §1, §2
Aurora B (AurB): The 2×AURKB (Aurora B)/Ser/Thr 01 (ThermoFisher Scientific proprietary) mixture was prepared in 50 mM HEPES pH 7.5, 0.01% BRIJ-35, 10 mM MgCl2, 1 mM EGTA. […] After the 1 hour Kinase Reaction incubation, 5 μL of a 1:4096 dilution of Development Reagent was added.

TTK = TTK (Homo sapiens (Human), UniProt P33981); assay: TTK enzyme assay (LanthaScreen Eu Kinase Binding); conditions: arithmetic mean of two or more experiments
Chain of TTK (P33981 whole entry): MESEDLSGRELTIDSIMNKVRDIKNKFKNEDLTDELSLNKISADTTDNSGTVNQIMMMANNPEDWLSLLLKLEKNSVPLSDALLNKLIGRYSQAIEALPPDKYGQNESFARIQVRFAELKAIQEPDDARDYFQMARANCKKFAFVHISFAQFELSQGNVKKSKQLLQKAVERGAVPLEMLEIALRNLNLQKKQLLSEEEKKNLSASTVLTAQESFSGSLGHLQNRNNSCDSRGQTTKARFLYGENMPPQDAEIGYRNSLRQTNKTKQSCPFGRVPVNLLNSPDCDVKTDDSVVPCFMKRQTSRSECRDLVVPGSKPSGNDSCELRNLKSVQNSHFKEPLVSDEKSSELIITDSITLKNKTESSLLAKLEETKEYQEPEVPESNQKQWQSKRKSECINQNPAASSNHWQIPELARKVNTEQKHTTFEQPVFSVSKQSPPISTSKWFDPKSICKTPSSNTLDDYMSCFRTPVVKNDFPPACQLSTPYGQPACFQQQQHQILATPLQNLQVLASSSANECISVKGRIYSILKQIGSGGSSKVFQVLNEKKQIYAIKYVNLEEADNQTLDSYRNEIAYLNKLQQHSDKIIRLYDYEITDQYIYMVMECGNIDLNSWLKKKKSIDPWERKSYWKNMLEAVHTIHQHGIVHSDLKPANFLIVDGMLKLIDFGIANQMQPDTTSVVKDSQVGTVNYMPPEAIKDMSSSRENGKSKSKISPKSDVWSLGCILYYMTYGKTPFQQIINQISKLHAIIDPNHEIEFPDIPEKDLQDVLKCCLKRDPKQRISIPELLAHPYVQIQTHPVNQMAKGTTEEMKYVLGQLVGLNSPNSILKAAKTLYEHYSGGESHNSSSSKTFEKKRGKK
Procedure: The inhibitory activity of compounds against TTK was determined in a LanthaScreen® Eu Kinase Binding assay run by ThermoFisher Scientific as part of their SelectScreen® Biochemical Kinase Profiling Service. The LanthaScreen® Eu Kinase Binding assay format uses binding of an Alexa Fluor® conjugate or “tracer” to a kinase, which is detected by addition of a Eu-labeled anti-tag antibody. […] The degree of FRET measured in the assay is used to determine the binding of a compound.
10 point three-fold dilution compound concentration-response curves, with a top concentration of 10 μM were generated from 10 mM stocks of compound solubilised in DMSO. All assays were performed in white, low volume Greiner 384-well plates (cat. #784207, Greiner), in a total reaction volume of 16 μL and 1% (v/v) final DMSO concentration. […] Plates were then read using a fluorescence plate reader. IC50 values were calculated using XLfit software (IDBS Ltd, Surrey, UK), with the curve fit to model number 205 (sigmoidal dose-response model).

JAK1 = JAK1 (Homo sapiens (Human), UniProt P23458); assay: JAK1 enzyme assay (Z'-LYTE); assay type: biochemical; conditions: 75 μM ATP; arithmetic mean of two or more experiments
Chain of JAK1 (P23458 whole entry): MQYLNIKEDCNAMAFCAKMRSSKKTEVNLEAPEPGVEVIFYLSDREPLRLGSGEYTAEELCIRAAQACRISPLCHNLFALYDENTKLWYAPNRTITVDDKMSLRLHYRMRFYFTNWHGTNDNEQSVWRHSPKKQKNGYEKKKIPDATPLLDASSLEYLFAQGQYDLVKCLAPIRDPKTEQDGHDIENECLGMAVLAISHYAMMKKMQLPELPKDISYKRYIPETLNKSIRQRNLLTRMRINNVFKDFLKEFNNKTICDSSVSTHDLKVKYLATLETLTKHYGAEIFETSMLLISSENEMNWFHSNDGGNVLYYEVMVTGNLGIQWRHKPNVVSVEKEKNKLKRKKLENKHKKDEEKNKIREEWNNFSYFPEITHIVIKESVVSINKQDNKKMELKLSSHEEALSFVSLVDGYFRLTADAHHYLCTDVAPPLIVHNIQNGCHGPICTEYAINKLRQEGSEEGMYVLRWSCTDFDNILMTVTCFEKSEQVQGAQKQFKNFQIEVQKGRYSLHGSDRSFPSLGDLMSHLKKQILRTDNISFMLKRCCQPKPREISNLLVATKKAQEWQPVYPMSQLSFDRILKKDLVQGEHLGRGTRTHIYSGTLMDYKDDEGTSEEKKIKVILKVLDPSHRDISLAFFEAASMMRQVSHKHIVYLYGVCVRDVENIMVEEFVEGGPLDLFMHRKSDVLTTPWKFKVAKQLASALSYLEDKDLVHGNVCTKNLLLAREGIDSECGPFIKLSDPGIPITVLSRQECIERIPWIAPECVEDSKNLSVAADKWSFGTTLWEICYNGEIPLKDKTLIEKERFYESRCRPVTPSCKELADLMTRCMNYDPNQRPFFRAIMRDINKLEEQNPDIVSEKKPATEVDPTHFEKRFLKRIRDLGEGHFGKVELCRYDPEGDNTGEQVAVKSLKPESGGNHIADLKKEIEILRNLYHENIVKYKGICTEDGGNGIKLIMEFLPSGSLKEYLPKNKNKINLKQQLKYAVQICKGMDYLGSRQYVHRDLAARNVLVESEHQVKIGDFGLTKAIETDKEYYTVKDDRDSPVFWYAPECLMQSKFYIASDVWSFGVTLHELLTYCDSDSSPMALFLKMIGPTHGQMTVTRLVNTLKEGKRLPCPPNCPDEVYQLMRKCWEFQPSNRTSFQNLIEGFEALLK
Procedure: as §1, §2
JAK1: The 2×JAK/Tyr 06 (ThermoFisher Scientific proprietary) mixture was prepared in 50 mM HEPES pH 6.5, 0.01% BRIJ-35, 10 mM MgCl2, 1 mM EGTA, 0.02% NaN3. […] After the 1 hour Kinase Reaction incubation, 5 μL of a 1:128 dilution of Development Reagent was added.

AURKA (Aurora A) = AURKA (Aurora A) (Homo sapiens (Human), UniProt O14965); assay: Aurora-A enzyme assay (Z'-LYTE); assay type: biochemical; conditions: 10 μM ATP; arithmetic mean of two or more experiments
Chain of AURKA (Aurora A) (O14965 whole entry): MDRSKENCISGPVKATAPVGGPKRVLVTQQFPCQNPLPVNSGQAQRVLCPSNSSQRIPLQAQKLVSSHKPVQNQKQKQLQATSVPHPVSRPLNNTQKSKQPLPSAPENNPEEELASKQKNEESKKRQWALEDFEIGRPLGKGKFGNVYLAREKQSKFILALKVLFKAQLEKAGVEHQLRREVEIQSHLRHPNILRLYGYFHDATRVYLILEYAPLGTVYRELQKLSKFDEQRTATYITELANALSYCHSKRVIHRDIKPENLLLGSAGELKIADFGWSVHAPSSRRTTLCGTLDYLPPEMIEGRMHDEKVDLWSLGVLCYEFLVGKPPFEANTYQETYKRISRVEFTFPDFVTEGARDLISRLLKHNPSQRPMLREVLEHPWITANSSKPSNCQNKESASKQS
Procedure: as §1, §2
Aurora A (AurA): The 2×AURKA (Aurora A)/Ser/Thr 01 (ThermoFisher Scientific proprietary) mixture was prepared in 50 mM HEPES pH 7.5, 0.01% BRIJ-35, 10 mM MgCl2, 1 mM EGTA. […] After the 1 hour Kinase Reaction incubation, 5 μL of a 1:4096 dilution of Development Reagent was added.

Discrete PK Rat = assay type: in vivo, han wistar rats; conditions: Han Wistar, plasma, iv, read-out: volume of distribution (V)
Discrete PK Dog = conditions: beagle, iv, 0.5 mg/kg
DNAPK = DNAPK (Homo sapiens (Human), UniProt P78527); assay: DNAPK cellular potency assay (DNA-PK cell), pS2056-DNAPK ELISA in irradiated A549 cells; assay type: cell-based; conditions: 8 Gy radiation, arithmetic mean of two or more experiments, read-out: DNA-PK cell pIC50 (converted)
Procedure: The DNAPK cell ELISA assay was performed in the A549 cell line. A549 cells were cultured in cell media composed of MEM-F12 (Minimum Essential Medium F12 Sigma #D6421), 10% (v/v) Foetal Calf Serum and 1% (v/v) 200 mM L-Glutamine. […] The following day the Greiner ELISA plates were washed 3× with PBS-T and blocked with 3% BSA/PBS for 2 h, before a further 3× wash with PBS-T.
The cell plates were then incubated for 1 h at 37° C. before receiving a radiation dose of 8 Gy (XRAD 320, table height 65). The cells were incubated for a further 1 h before removal of cell media. […] Cell lysates ([…]) were transferred to the DNAPK antibody-coated ELISA plates using a CyBio Felix liquid handling platform, and ELISA plates were incubated at 4° C. overnight.
The following day, ELISA plates were washed 3× with PBS-T and dispensed with in-house pS2056-DNAPK antibody (0.5 μg/mL in 3% BSA/PBS) at 20 ul/well.
The fluorescence intensity of individual wells was determined using a PerkinElmer EnVision plate reader.
Data was analysed and IC50 values were calculated using Genedata Screener® software (Genedata, Inc., Basel, Switzerland).

Chain of JAK2 (O60674 whole entry): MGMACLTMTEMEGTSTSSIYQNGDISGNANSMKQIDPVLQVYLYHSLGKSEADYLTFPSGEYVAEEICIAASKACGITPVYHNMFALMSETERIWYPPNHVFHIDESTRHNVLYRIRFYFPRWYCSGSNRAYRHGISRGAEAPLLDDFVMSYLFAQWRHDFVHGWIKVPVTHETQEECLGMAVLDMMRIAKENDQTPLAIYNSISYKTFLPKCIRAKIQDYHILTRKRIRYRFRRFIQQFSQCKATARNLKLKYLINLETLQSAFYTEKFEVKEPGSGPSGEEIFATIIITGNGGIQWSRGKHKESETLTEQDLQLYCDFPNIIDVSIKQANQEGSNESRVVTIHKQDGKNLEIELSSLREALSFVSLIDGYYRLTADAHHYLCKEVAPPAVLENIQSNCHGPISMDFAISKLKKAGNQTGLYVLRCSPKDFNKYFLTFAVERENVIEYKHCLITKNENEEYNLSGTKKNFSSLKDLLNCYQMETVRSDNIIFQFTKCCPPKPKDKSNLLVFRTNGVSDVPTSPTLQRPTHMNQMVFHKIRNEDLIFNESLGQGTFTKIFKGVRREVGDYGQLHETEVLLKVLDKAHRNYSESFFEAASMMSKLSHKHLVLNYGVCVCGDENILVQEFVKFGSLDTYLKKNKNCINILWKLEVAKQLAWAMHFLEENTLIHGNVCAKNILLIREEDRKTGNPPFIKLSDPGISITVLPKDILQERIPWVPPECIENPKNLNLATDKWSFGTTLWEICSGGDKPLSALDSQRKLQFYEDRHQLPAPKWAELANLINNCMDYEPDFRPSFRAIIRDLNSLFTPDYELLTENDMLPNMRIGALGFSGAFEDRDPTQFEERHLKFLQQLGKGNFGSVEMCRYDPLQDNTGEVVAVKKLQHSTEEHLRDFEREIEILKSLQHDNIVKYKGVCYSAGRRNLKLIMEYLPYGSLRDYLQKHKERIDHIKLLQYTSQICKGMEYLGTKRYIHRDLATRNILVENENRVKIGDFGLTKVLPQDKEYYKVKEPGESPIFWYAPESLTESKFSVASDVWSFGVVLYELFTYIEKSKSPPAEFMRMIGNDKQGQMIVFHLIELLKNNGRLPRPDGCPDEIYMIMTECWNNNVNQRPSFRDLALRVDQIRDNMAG

Compound	JAK2 enz pIC50 (JAK2)	JAK3 enz pIC50 (JAK3)	AurB enz pIC50 (AURKB (Aurora B))	TTK enz pIC50 (TTK)	JAK1 enz pIC50 (JAK1)	AurA enz pIC50 (AURKA (Aurora A))	IC50 (DNAPK) [nM]	further results
Cc1cc2nnccc2cc1Nc1ncc2c(n1)n(C1CCN(C)CC1)c(=O)n2C [Example 43, 7-methyl-2-((7-methylcinnolin-6-yl)amino)-9-(1-methylpiperidin-4-yl)-7,9-dihydro-8H-purin-8-one]	<5	<5	<5	<5	<5	<5	–	–
Cc1cc2ncccc2cc1Nc1ncc2c(n1)n([C@H]1CCN(C)C1)c(=O)n2C [Example 42, (S)-7-methyl-9-(1-methylpyrrolidin-3-yl)-2-((7-methylquinolin-6-yl)amino)-7,9-dihydro-8H-purin-8-one]	<5	<5	<5	<5.1	<5	<5	–	–
Cc1cc2ncccc2cc1Nc1ncc2c(n1)n([C@@H]1CNC[C@H]1F)c(=O)n2C [Example 52, 9-((3R,4R)-4-fluoropyrrolidin-3-yl)-7-methyl-2-((7-methylquinolin-6-yl)amino)-7,9-dihydro-8H-purin-8-one]	–	–	–	–	–	–	–	Vd (Discrete PK Rat): 1.65 L/kg; Vd (Discrete PK Dog; in vivo): 5.4 L/kg
Cc1cc2ncccc2cc1Nc1ncc2c(n1)n(C1CCOCC1)c(=O)n2C [Example 30, 7-methyl-2-((7-methylquinolin-6-yl)amino)-9-(tetrahydro-2H-pyran-4-yl)-7,9-dihydro-8H-purin-8-one]	<5	<5	<5	6.4	<5	<5	–	–
Cc1cc2nnccc2cc1Nc1ncc2c(n1)n(C1CCOCC1)c(=O)n2C [Example 29, 7-methyl-2-((7-methylcinnolin-6-yl)amino)-9-(tetrahydro-2H-pyran-4-yl)-7,9-dihydro-8H-purin-8-one]	<5	<5	<5	6.4	<5	<5	–	–
Cc1cc2nnccc2cc1Nc1ncc2c(n1)n([C@H]1CC[C@@](C)(O)CC1)c(=O)n2C [Example 16, 9-((1s,4s)-4-hydroxy-4-methylcyclohexyl)-7-methyl-2-((7-methylcinnolin-6-yl)amino)-7,9-dihydro-8H-purin-8-one]	–	–	–	–	–	–	15.8	–
Cc1cc2ncccc2cc1Nc1ncc2c(n1)n([C@@H]1CCN(C)C1)c(=O)n2C [Example 41, (R)-7-methyl-9-(1-methylpyrrolidin-3-yl)-2-((7-methylquinolin-6-yl)amino)-7,9-dihydro-8H-purin-8-one]	<5	<5	<5	<5.1	<5	<5	–	–
Cc1cc2nnccc2cc1Nc1ncc2c(n1)n([C@H]1CC[C@](C)(O)CC1)c(=O)n2C [Example 17, 9-((1r,4r)-4-hydroxy-4-methylcyclohexyl)-7-methyl-2-((7-methylcinnolin-6-yl)amino)-7,9-dihydro-8H-purin-8-one]	–	–	–	–	–	–	100	–
Cc1cc2ncccc2cc1Nc1ncc2c(n1)n([C@H]1CC[C@](C)(O)CC1)c(=O)n2C [Example 15, 9-((1r,4r)-4-hydroxy-4-methylcyclohexyl)-7-methyl-2-((7-methylquinolin-6-yl)amino)-7,9-dihydro-8H-purin-8-one]	–	–	–	–	–	–	15.8	–
Cc1cc2ncccc2cc1Nc1ncc2c(n1)n([C@H]1CC[C@@](C)(O)CC1)c(=O)n2C [Example 14, 9-((1s,4s)-4-hydroxy-4-methylcyclohexyl)-7-methyl-2-((7-methylquinolin-6-yl)amino)-7,9-dihydro-8H-purin-8-one]	–	–	–	–	–	–	10	–
Cc1cc2ncccc2cc1Nc1ncc2c(n1)n(C1CCN(C)CC1)c(=O)n2C [Example 44, 7-methyl-9-(1-methylpiperidin-4-yl)-2-((7-methylquinolin-6-yl)amino)-7,9-dihydro-8H-purin-8-one]	–	–	–	–	–	–	–	Vd (Discrete PK Rat): 3.4 L/kg; Vd (Discrete PK Dog; plasma): 7.8 L/kg
